From US20050164993A1, “Methods of treating allergic reactions” (priority 2002, published 2005)

tested on: BALB/c 3T3 (CCL-163) cells; test: 3T3 Neutral Red uptake phototoxicity assay (with/without UVA); conditions: not given
Method: Streptomycin sulfate ([…]) and penicillin (100 IU/ml) were added to the medium after the cells were treated with test article in 96-well plates.
Serial dilutions of the tetracycline derivatives were prepared in DMSO at concentrations 100× to final testing concentration. The COL dilutions in DMSO were then diluted in Hanks' Balanced Salt Solution (HBSS) for application to the cells. The final DMSO concentration was 1% in treated and control cultures. A dose range finding assay is conducted with eight serial dilutions covering a range of 100-0.03 μg/ml in half log steps. Definitive assays are conducted with 6-8 serial dilutions prepared in quarter log steps, centered on the expected 50% toxicity point as determined in the dose range finding assay. One hundred 100 μg/ml was the highest dose recommended to prevent false negative results from UV absorption by the dosing solutions. One dose range finding and at least two definitive trials were performed on each tetracycline derivative and control compound.
Controls: Each assay included both negative (solvent) and positive controls. Twelve wells of negative control cultures were used on each 96-well plate. Chlorpromazine (Sigma Chemicals) was used as the positive control and was prepared and dosed like the test tetracycline derivatives.
Solar Simulator: A Dermalight SOL 3 solar simulator, equipped with a UVA H1 filter (320-400 nm), was adjusted to the appropriate height. Measurement of energy through the lid of a 96-well microtiter plate was carried out using a calibrated UV radiometer UVA sensor. Simulator height was adjusted to deliver 1.7±0.1 mW/cm^2 of UVA energy (resulting dose was 1 J/cm^2 per 10 minutes of exposure).
Phototoxicity Assay: Duplicate plates were prepared for each test material by seeding 10^4 3T3 cells per well in complete medium 24 hours before treatment. Prior to treatment, the medium was removed, and the cells washed once with 125 μl of prewarmed HBSS. Fifty μl of prewarmed HBSS were added to each well. Fifty μl of each test article dilution were added to the appropriate wells and the plates returned to the incubator for approximately one hour. Six wells were treated with each dose of test or control article on each plate. Following the 1 hr incubation, the plates designated for the photo irradiation were exposed (with the lid on) to 1.7±0.1 mW/cm^2 UVA light for 50±2 minutes at room temperature resulting in an irradiation dose of 5 J/cm^2. Duplicate plates, designated for the measurement of cytotoxicity without light, were kept in the dark room temperature for 50±2 minutes. After the 50 minute exposure period (with or without light) the test article dilutions were decanted from the plates and the cells washed once with 125 μl of HBSS. One hundred μl of medium were added to all wells and the cells incubated as above for 24±1 hours.
After 24 hours of incubation, the medium was decanted and 100 μl of the Neutral Red containing medium were added to each well. The plates were returned to the incubator and incubated for approximately 3 hours. After 3 hours, the medium was decanted and each well rinsed once with 250 μl of HBSS. The plates were blotted to remove the HBSS and 100 μl of Neutral Red Solvent were added to each well. After a minimum of 20 minutes of incubation at room temperature (with shaking), the absorbance at 550 nm was measured with a plate reader, using the mean of the blank outer wells as the reference. Relative survival was obtained by comparing the amount of neutral red taken by each well treated with the test article and positive control to the neutral red taken up by the average of the negative wells (12 wells) on the same plate. The amount of neutral red taken up by the negative control wells is considered to be 100% survival.

Row | SMILES | PIF 1 (photoirritancy factor, earlier software) | PIF 2 (photoirritancy factor, OECD Draft Guideline 432)
1 | NC(=O)C1=C(O)CC2CC3Cc4ccc(N)c(O)c4C(=O)C3=C(O)C2(O)C1=O (stereo not drawn) [COL 308, 9-amino-6-demethyl-6-deoxy-4-dedimethylaminotetracycline] | 1.0 | –
2 | CN(C)c1ccc(O)c2c1CC1CC3CC(O)=C(C(N)=O)C(=O)C3(O)C(O)=C1C2=O (stereo not drawn) [COL 10, 4-dedimethylaminominocycline] | – | 2.04
3 | O=C(NCN1CCCCC1)C1=C(O)CC2CC3Cc4cccc(O)c4C(=O)C3=C(O)C2(O)C1=O (stereo not drawn) [COL 313, 2-CONHCH2-piperidin-1-yl-6-demethyl-6-deoxy-4-dedimethylaminotetracycline] | 80.27 | 58.22
4 | NC(=O)C1=C(O)CC2CC3Cc4c([N+](=O)[O-])ccc(O)c4C(=O)C3=C(O)C2(O)C1=O (stereo not drawn) [COL 302, 7-nitro-6-demethyl-6-deoxy-4-dedimethylaminotetracycline] | 23.16 | 23.32
5 | NC(=O)C1=C(O)CC2CC3Cc4ccc([N+](=O)[O-])c(O)c4C(=O)C3=C(O)C2(O)C1=O (stereo not drawn) [COL 303, 9-nitro-6-demethyl-6-deoxy-4-dedimethylaminotetracycline] | 5.27 | 13.82
6 | CCCCCCCCCCCCCCCC(=O)Nc1ccc2c(c1O)C(=O)C1=C(O)C3(O)C(=O)C(C(N)=O)=C(O)CC3CC1C2 (stereo not drawn) [COL 311, 9-palmitamide-6-demethyl-6-deoxy-4-dedimethylaminotetracycline] | 1.0 | –
7 | CN(C)CC(=O)Nc1ccc2c(c1O)C(=O)C1=C(O)C3(O)C(=O)C(C(N)=O)=C(O)CC3CC1C2 (stereo not drawn) [COL 309, 9-dimethylaminoacetamido-6-demethyl-6-deoxy-4-dedimethylaminotetracycline] | 5.17 | 12.87
8 | CC1c2cccc(O)c2C(=O)C2=C(O)C3(O)C(=O)C(C(N)=O)=C(O)CC3C(O)C21 (stereo not drawn) [COL 8, 4-dedimethylaminodoxycycline] | 165 | 82.61
9 | O=C(NCN1CCOCC1)C1=C(O)CC2CC3Cc4cccc(O)c4C(=O)C3=C(O)C2(O)C1=O (stereo not drawn) [COL 314, 2-CONHCH2-morpholin-1-yl-6-demethyl-6-deoxy-4-dedimethylaminotetracycline] | 41.1 | 89.48
10 | CC1c2ccc(N)c(O)c2C(=O)C2=C(O)C3(O)C(=O)C(C(N)=O)=C(O)CC3C(O)C21 (stereo not drawn) [COL 805, 9-amino-4-dedimethylaminodoxycycline] | 1.0 | –
11 | CN(C)c1ccc2c(c1O)C(=O)C1=C(O)C3(O)C(=O)C(C(N)=O)=C(O)CC3CC1C2 (stereo not drawn) [COL 306, 9-dimethylamino-6-demethyl-6-deoxy-4-dedimethylaminotetracycline] | 1.64 | 1.56
12 | NC(=O)C1=C(O)C[C@@H]2C[C@@H]3Cc4cccc(O)c4C(=O)C3=C(O)[C@]2(O)C1=O [COL 3, 6-demethyl-6-deoxy-4-dedimethylaminotetracycline] | 647 | 84.72
13 | CC1c2cccc(O)c2C(=O)C2=C(O)C3(O)C(=O)C(C(=O)NCN4CCCCC4)=C(O)CC3C(O)C21 (stereo not drawn) [COL 808, 2-CONHCH2-piperidin-1-yl-4-dedimethylaminodoxycycline] | 46.45 | –
14 | O=C(NCN1CCCC1)C1=C(O)CC2CC3Cc4cccc(O)c4C(=O)C3=C(O)C2(O)C1=O (stereo not drawn) [COL 312, 2-CONHCH2-pyrrolidin-1-yl-6-demethyl-6-deoxy-4-dedimethylaminotetracycline] | 62.67 | 75.11
15 | CC1c2ccc([N+](=O)[O-])c(O)c2C(=O)C2=C(O)C3(O)C(=O)C(C(N)=O)=C(O)CC3C(O)C21 (stereo not drawn) [COL 804, 9-nitro-4-dedimethylaminodoxycycline] | 1.0 | –
16 | O=C(NCN1CCNCC1)C1=C(O)CC2CC3Cc4cccc(O)c4C(=O)C3=C(O)C2(O)C1=O (stereo not drawn) [COL 315, 2-CONHCH2-piperazin-1-yl-6-demethyl-6-deoxy-4-dedimethylaminotetracycline] | 15.8 | 35.30
17 | CC1c2cccc(O)c2C(=O)C2=C(O)C3(O)C(=O)C(C(=O)NCN4CCCC4)=C(O)CC3C(O)C21 (stereo not drawn) [COL 807, 2-CONHCH2-pyrrolidin-1-yl-4-dedimethylaminodoxycycline] | 40.4 | –
18 | NC(=O)C1=C(O)CC2CC3Cc4c(N)ccc(O)c4C(=O)C3=C(O)C2(O)C1=O (stereo not drawn) [COL 307, 7-amino-6-demethyl-6-deoxy-4-dedimethylaminotetracycline] | 1.17 | –
19 | CC(=O)Nc1ccc2c(c1O)C(=O)C1=C(O)C3(O)C(=O)C(C(N)=O)=C(O)CC3C(O)C1C2C (stereo not drawn) [COL 801, 9-acetamido-4-dedimethylaminodoxycycline] | 1.0 | –
20 | CC1c2ccc(NC(=O)CN(C)C)c(O)c2C(=O)C2=C(O)C3(O)C(=O)C(C(N)=O)=C(O)CC3C(O)C21 (stereo not drawn) [COL 802, 9-dimethylaminoacetamido-4-dedimethylaminodoxycycline] | 1.0 | –
21 | CN(C)c1cc([N+](=O)[O-])c(O)c2c1CC1CC3CC(O)=C(C(N)=O)C(=O)C3(O)C(O)=C1C2=O (stereo not drawn) [COL 1002, 9-nitro-4-dedimethylaminominocycline] | – | 1.35

same assay, conditions: 3T3 cells, 5 J/cm^2 UVA vs dark; <0.1 nonphototoxin, 0.1 to <0.15 probable, >=0.15 clear phototoxin

Row | SMILES | MPE (mean photo effect)
22 | CN(C)[C@@H]1C(=O)C(C(N)=O)=C(O)[C@@]2(O)C(=O)C3=C(O)c4c(O)cccc4[C@@](C)(O)[C@H]3C[C@@H]12 [Tetracycline, reference compound] | 0.340

same assay, conditions: IC50(-UVA)/IC50(+UVA), 3T3 cells; >5 indicative of phototoxic potential

Row | SMILES | PIF 1 (photoirritancy factor, earlier software)
23 | CN(C)[C@@H]1C(=O)C(C(N)=O)=C(O)[C@@]2(O)C(=O)C3=C(O)c4c(O)cccc4[C@@](C)(O)[C@H]3C[C@@H]12 [Tetracycline, reference compound] | 5.38

same assay, conditions: mouse

Row | SMILES | PIF 2 (photoirritancy factor, OECD Draft Guideline 432) | PIF 1 (photoirritancy factor, earlier software)
24 | CN(C)CCCN1c2ccccc2Sc2ccc(Cl)cc21 [Chlorpromazine, reference compound] | 40.38 | –
25 | C[C@H]1c2cccc(O)c2C(=O)C2=C(O)[C@]3(O)C(=O)C(C(N)=O)=C(O)[C@@H](N(C)C)[C@@H]3[C@@H](O)[C@@H]21 [Doxycycline, 6α-deoxy-5-hydroxytetracycline, reference compound] | 26.71 | 23.37

tested on: not given; test: not given; conditions: based on steady-state pharmacokinetics; cited from earlier work

Row | SMILES | plasma antibiotic threshold level [µg/mL]
26 | CN(C)[C@@H]1C(=O)C(C(N)=O)=C(O)[C@@]2(O)C(=O)C3=C(O)c4c(O)cccc4[C@@](C)(O)[C@H]3C[C@@H]12 [Tetracycline, reference compound] | 0.5
27 | CN(C)c1ccc(O)c2c1C[C@H]1C[C@H]3[C@H](N(C)C)C(O)=C(C(N)=O)C(=O)[C@@]3(O)C(O)=C1C2=O [Minocycline, 7-dimethylaminotetracycline] | 0.8
28 | C[C@H]1c2cccc(O)c2C(=O)C2=C(O)[C@]3(O)C(=O)C(C(N)=O)=C(O)[C@@H](N(C)C)[C@@H]3[C@@H](O)[C@@H]21 [Doxycycline, 6α-deoxy-5-hydroxytetracycline, reference compound] | 1.0
